From patent publication US20090171592A1, “Homology Models of Mammalian Zinc Transporters and Methods of Using Same” (Brookhaven Science Associates, LLC, priority 2007, published 2009)
Like-named read-outs stand apart in the source and are kept apart here.

Experiments:
[1] = molecular target: T1, YiiP (Escherichia coli, UniProt P69380); settings: cited from earlier work
[2] = molecular target: T1, YiiP; settings: cited from earlier work; remark: listed apart in the source
[3] = molecular target: T1, YiiP; settings: Kd1 145 μM vs Kd2 0.24 μM
Excerpt: Anomalous difference Fourier maps of native crystals were computed using experimental phases and diffraction data collected at the zinc edge.

T1 sequence (P69380 whole entry): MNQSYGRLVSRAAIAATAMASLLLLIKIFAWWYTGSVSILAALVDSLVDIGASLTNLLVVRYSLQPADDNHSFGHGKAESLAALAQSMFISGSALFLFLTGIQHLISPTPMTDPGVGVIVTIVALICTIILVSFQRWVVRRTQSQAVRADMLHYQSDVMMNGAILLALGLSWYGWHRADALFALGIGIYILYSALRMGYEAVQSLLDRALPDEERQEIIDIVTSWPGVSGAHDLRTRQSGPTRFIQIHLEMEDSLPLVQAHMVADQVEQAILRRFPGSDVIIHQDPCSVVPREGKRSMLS

| SMILES | Zn2+ stoichiometry units per YiiP protomer ([1]; EDTA pre-treated YiiP) | binding affinities, metal binding mapped to D49 and D157 in the transmembrane domain [1] | Kd ([1]; read-out: dissociation constant (Kd, Kd1), low affinity component / site-Z2, low-affinity binding component, intracellular-facing site-Z2) [µM] | Kd ([1]; read-out: dissociation constant (Kd, Kd2), high affinity sites / site-Z1, two high affinity Zn2+-binding sites, overall Kd, attributed to site-Z1) [µM] | turnover rate of Zn2+ transport across the membrane ([2]; 30-ms timescale) [s^−] | Km ([2]; read-out: Michaelis-Menten constant (Km) of Zn2+ transport by YiiP) [µM] | affinity difference between site-Z1 and Z2 [3] [fold] |
| --- | --- | --- | --- | --- | --- | --- | --- |
| [Zn+2] [Zn^2+] | 2.6 | submicromolar range | 145 | 0.24 | 34 | 310 | 604 |
| [Cd+2] [Cd^2+] |  | submicromolar range |  |  |  |  |  |
